Columns and labels:
[1] = system: brains, heart, liver, muscle, and DRG of the NHPs; assay: Maturation of TTM-001 and TTM-002 capsids, NGS enrichment in NHP tissues; type: in vivo; settings: relative to AAV9 control
In short: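 Variants carry mutations within and flanking the loop IV peptide insert: positions 450–466 were triplet-randomized, while positions 449–466 received low-frequency point mutations. The combined pool went into two NHPs, and each peptide was scored by NGS enrichment ratio against AAV9.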

[2] = system: brain; assay: Matured TTM-001 and TTM-002 variants, NGS enrichment in mouse brain; type: in vivo, mice; settings: relative to AAV9 control
[3] = NGS fold-enrichment, DRG of NHPs
[4] = NGS fold-enrichment, RNA, brain of NHPs
[5] = NGS fold-enrichment, heart of NHPs
[6] = NGS fold-enrichment, liver DNA of NHPs
[7] = NGS fold-enrichment, liver RNA of NHPs
[8] = NGS fold-enrichment, muscle of NHPs
[9] = NGS fold-enrichment, brain of mice
[10] = NGS fold-enrichment of RNA, NHP brain
[11] = NGS fold-enrichment, NHP liver DNA
[12] = NGS fold-enrichment, NHP liver RNA
[13] = NGS fold-enrichment, NHP muscle
[14] = NGS fold-enrichment, mouse brain
[15] = NGS fold-enrichment of matured AAV capsid variants, NHP brain, RNA

| Sequence | Fold Enrichment relative to AAV9, DRG (NHP) [1, 3] | Fold Enrichment relative to AAV9, Brain (NHP) [1, 4] | Fold Enrichment relative to AAV9, Heart (NHP) [1, 5] | Fold Enrichment relative to AAV9, Liver DNA (NHP) [1, 6] | Fold Enrichment relative to AAV9, Liver RNA (NHP) [1, 7] | Fold Enrichment relative to AAV9, Muscle (NHP) [1, 8] | Fold Enrichment relative to AAV9, Brain (Mouse) [2, 9] | Fold Enrichment relative to AAV9, Brain (NHP) [1, 10] | Fold Enrichment relative to AAV9, DRG (NHP) ([1]; NGS fold-enrichment, NHP DRG) | Fold Enrichment relative to AAV9, Heart (NHP) ([1]; NGS fold-enrichment, NHP heart) | Fold Enrichment relative to AAV9, Liver DNA (NHP) [1, 11] | Fold Enrichment relative to AAV9, Liver RNA (NHP) [1, 12] | Fold Enrichment relative to AAV9, Muscle (NHP) [1, 13] | Fold Enrichment relative to AAV9, Brain (Mouse) [2, 14] | also measured |
| --- | --- | --- | --- | --- | --- | --- | --- | --- | --- | --- | --- | --- | --- | --- | --- |
| KTIIGSGSPHSKAQHQLT | 0.000 fold | 72.291 fold | 0.000 fold | 0.000 fold | 0.000 fold | 0.000 fold | 100.144 fold |  |  |  |  |  |  |  |  |
| KTIIGSGSPHSKAQNRHT | 0.000 fold | 217.176 fold | 0.000 fold | 0.000 fold | 0.000 fold | 0.000 fold | 210.515 fold | 217.176 fold | 0.000 fold | 0.000 fold | 0.000 fold | 0.000 fold | 0.000 fold | 210.515 fold |  |
| KTIIKNGSPHSKAQNQQT |  |  |  |  |  |  |  |  |  |  |  |  |  |  | Fold Enrichment relative to AAV9, Brain (NHP) [1, 15]: 50.587 fold; Fold Enrichment relative to AAV9, DRG (NHP) ([1]; NHP DRG): 0.000 fold; Fold Enrichment relative to AAV9, Heart (NHP) ([1]; NHP heart): 0.000 fold; Fold Enrichment relative to AAV9, Liver DNA (NHP) ([1]; NHP liver, DNA): 0.751 fold; Fold Enrichment relative to AAV9, Liver RNA (NHP) ([1]; NHP liver, RNA): 0.000 fold; Fold Enrichment relative to AAV9, Muscle (NHP) ([1]; NHP muscle): 0.000 fold; Fold Enrichment relative to AAV9, Brain (Mouse) ([2]; mouse brain): 75.547 fold |
| KTIKGNDSPHKSVQNQQT |  |  |  |  |  |  |  | 85.986 fold | 0.000 fold | 0.135 fold | 0.000 fold | 0.263 fold | 0.000 fold | 8.603 fold |  |
| KTIKGQDSPHKIGQNQQT |  |  |  |  |  |  |  | 110.357 fold | 0.000 fold | 0.103 fold | 0.135 fold | 0.166 fold | 0.058 fold | 11.829 fold |  |
| KTIKGSGSPHSKAQDLQT | 0.000 fold | 63.260 fold | 0.000 fold | 0.218 fold | 0.000 fold | 0.000 fold | 58.576 fold |  |  |  |  |  |  |  |  |
| KTINAHDSPHKIGQNHQT |  |  |  |  |  |  |  | 106.832 fold | 0.000 fold | 0.121 fold | 0.231 fold | 0.000 fold | 0.000 fold | 5.074 fold |  |
| KTINGCGSPHASGQNQQT |  |  |  |  |  |  |  | 132.540 fold | 0.000 fold | 0.121 fold | 0.059 fold | 0.000 fold | 0.042 fold | 1.857 fold |  |
| KTINGGGSPHSKALNQQN | 0.000 fold | 77.822 fold | 0.131 fold | 0.274 fold | 0.000 fold | 0.000 fold | 69.884 fold | 77.822 fold | 0.000 fold | 0.131 fold | 0.274 fold | 0.000 fold | 0.000 fold | 69.884 fold |  |
| KTINGGGSPHSKAQDKQT | 0.000 fold | 59.322 fold | 0.000 fold | 0.093 fold | 0.000 fold | 0.000 fold | 50.764 fold |  |  |  |  |  |  |  |  |
| KTINGGGSPHSKAQNPPT | 0.000 fold | 63.041 fold | 0.082 fold | 0.057 fold | 0.000 fold | 0.000 fold | 64.045 fold |  |  |  |  |  |  |  |  |
| KTINGGGSPHSKAQNPQA |  |  |  |  |  |  |  |  |  |  |  |  |  |  | Fold Enrichment relative to AAV9, Brain (NHP) [1, 15]: 51.574 fold; Fold Enrichment relative to AAV9, DRG (NHP) ([1]; NHP DRG): 0.000 fold; Fold Enrichment relative to AAV9, Heart (NHP) ([1]; NHP heart): 0.000 fold; Fold Enrichment relative to AAV9, Liver DNA (NHP) ([1]; NHP liver, DNA): 0.000 fold; Fold Enrichment relative to AAV9, Liver RNA (NHP) ([1]; NHP liver, RNA): 0.192 fold; Fold Enrichment relative to AAV9, Muscle (NHP) ([1]; NHP muscle): 0.000 fold; Fold Enrichment relative to AAV9, Brain (Mouse) ([2]; mouse brain): 102.792 fold |
| KTINGGGSPHSKAQNQLI | 0.000 fold | 83.881 fold | 0.000 fold | 0.387 fold | 0.046 fold | 0.000 fold | 78.383 fold | 83.881 fold | 0.000 fold | 0.000 fold | 0.387 fold | 0.046 fold | 0.000 fold | 78.383 fold |  |
| KTINGGGSPHSKAQNQMT |  |  |  |  |  |  |  |  |  |  |  |  |  |  | Fold Enrichment relative to AAV9, Brain (NHP) [1, 15]: 55.778 fold; Fold Enrichment relative to AAV9, DRG (NHP) ([1]; NHP DRG): 0.000 fold; Fold Enrichment relative to AAV9, Heart (NHP) ([1]; NHP heart): 0.000 fold; Fold Enrichment relative to AAV9, Liver DNA (NHP) ([1]; NHP liver, DNA): 0.012 fold; Fold Enrichment relative to AAV9, Liver RNA (NHP) ([1]; NHP liver, RNA): 0.866 fold; Fold Enrichment relative to AAV9, Muscle (NHP) ([1]; NHP muscle): 0.000 fold; Fold Enrichment relative to AAV9, Brain (Mouse) ([2]; mouse brain): 73.177 fold |
| KTINGGGSPHSKAQNQQC | 0.219 fold | 89.301 fold | 0.000 fold | 0.319 fold | 0.287 fold | 0.000 fold | 53.840 fold | 89.301 fold | 0.219 fold | 0.000 fold | 0.319 fold | 0.287 fold | 0.000 fold | 53.840 fold |  |
| KTINGGGSPHSKAQRQQT |  |  |  |  |  |  |  |  |  |  |  |  |  |  | Fold Enrichment relative to AAV9, Brain (NHP) [1, 15]: 50.998 fold; Fold Enrichment relative to AAV9, DRG (NHP) ([1]; NHP DRG): 0.000 fold; Fold Enrichment relative to AAV9, Heart (NHP) ([1]; NHP heart): 0.041 fold; Fold Enrichment relative to AAV9, Liver DNA (NHP) ([1]; NHP liver, DNA): 0.142 fold; Fold Enrichment relative to AAV9, Liver RNA (NHP) ([1]; NHP liver, RNA): 0.991 fold; Fold Enrichment relative to AAV9, Muscle (NHP) ([1]; NHP muscle): 0.000 fold; Fold Enrichment relative to AAV9, Brain (Mouse) ([2]; mouse brain): 147.942 fold |
| KTINGGGSPHSKAQSQQI | 0.000 fold | 74.264 fold | 0.000 fold | 0.235 fold | 0.000 fold | 0.000 fold | 67.651 fold |  |  |  |  |  |  |  |  |
| KTINGGGSPHSKAQTQQI | 0.000 fold | 92.345 fold | 0.000 fold | 0.023 fold | 0.000 fold | 0.000 fold | 54.199 fold | 92.345 fold | 0.000 fold | 0.000 fold | 0.023 fold | 0.000 fold | 0.000 fold | 54.199 fold |  |
| KTINGGGSPHSKAQYQHT |  |  |  |  |  |  |  |  |  |  |  |  |  |  | Fold Enrichment relative to AAV9, Brain (NHP) [1, 15]: 54.188 fold; Fold Enrichment relative to AAV9, DRG (NHP) ([1]; NHP DRG): 0.000 fold; Fold Enrichment relative to AAV9, Heart (NHP) ([1]; NHP heart): 0.000 fold; Fold Enrichment relative to AAV9, Liver DNA (NHP) ([1]; NHP liver, DNA): 0.223 fold; Fold Enrichment relative to AAV9, Liver RNA (NHP) ([1]; NHP liver, RNA): 0.000 fold; Fold Enrichment relative to AAV9, Muscle (NHP) ([1]; NHP muscle): 0.000 fold; Fold Enrichment relative to AAV9, Brain (Mouse) ([2]; mouse brain): 82.256 fold |
